# In US11242347B2, “2-phenyl-3,4-dihydropyrrolo[2,1-Ff] [1,2,4]triazinone derivatives as phosphodiesterase inhibitors and uses thereof” (TOPADUR PHARMA AG, priority 2015, dated 2022):
# How the values were obtained:
# [1] = test system: human pulmonary artery smooth muscle cells (hPASMC); assay: Measurements of cGMP in human pulmonary artery smooth muscle cells (hPASMC); assay type: cell-based; conditions: incubation 15 or 30 min; compared with sildenafil
# Method: Human Pulmonary Artery Smooth Muscle Cells (hPASMC) were purchased from Clonetics™ Lonza (Lonza, reference number CC-2581) and cultured in Clonetics' smooth muscle growth medium (Clonetics™ SmGM™-2 with BulletKit™ growth factor supplements (Lonza, reference number CC-3182) at 37° C. in 5% CO2. Culture medium was replaced each 48 hours. Cells were grown in 75 cm^2 culture plates.
# 48 h before the experiments, cells were trypsinized (Trypsin kit One ReagentPack™ (CC-5034), Lonza) and plated in 96 well plates precoated with collagen I at 10000 cells per well. 24 h before the experiments culture medium was replaced by serum-reduced (0.5% FBS) medium.
# Measurements of intracellular cGMP were performed using the Amersham cGMP EIA System (GE Healthcare, RPN226) following the instructions of the manufacturer. The assay has a sensitivity of 2 fmol cGMP per well. Briefly, incubations were terminated by adding Amersham's lysis buffer 1 and cells left for 10 min under agitation to ensure complete lysis. cGMP in samples was then acetylated using triethylamine and acetic anhydride and determined by a competitive ELISA. The ELISA is based on the competition between acetylated cGMP in cell culture lysates and a peroxidase-labelled cGMP conjugate for limited binding sites on a cGMP specific antiserum immobilized on pre-coated 96 well MTP. cGMP was determined based on a standard curve. […]
# [2] = test system: phenylephrine-precontracted rat aortic rings; assay: Isometric tension studies: relaxation of phenylephrine-precontracted rat aortic rings; conditions: for IC40: concentration where 40% relaxation was achieved
# Method: After 1 week of acclimatization, rats were anesthetized. Appropriate depth of anesthesia was determined by the absence of the leg flexor response and the eyelid reflex. Then, the thorax was quickly opened by a midline incision, and the rat was sacrificed by cutting the heart and exsanguination.
# Indomethacin (1 μM) was added to the saline solution.
# Eligible rings were then washed several times to restore tension to the baseline level.
# In some experiments, the entire length of the thoracic aorta was functionally denuded of the endothelial layer by gently scraping the luminal surface with a 1.5 mm glass rod. […] Rings were then washed several times to restore tension to the baseline level.
# Indomethacin (1 μM) was added to the saline solution. […] Only vessels with at least 60% relaxation to 1 μM ACh from the tension with 300 nM were eligible.
# The preparations were allowed to equilibrate for 60 min in Krebs with high glucose (25 mM) before contraction to a new single concentration of PE (300 nM).
# Finally, sodium nitroprusside (0.1 mM) was added, in order to obtain maximum relaxation of arterial rings.
# The amount of relaxation (percent values as means±SEM) was quantified as percent relaxation from the tension (plateau) achieved with phenylephrine.
# Data are presented as mean±SEM. Statistical analysis of results has been performed by analysis of variance (ANOVA) either parametric or non-parametric (Kruskal-Wallis), followed by Bonferroni test or Dunn tests as appropriate (GraphPad Software Inc, San Diego, Calif., USA). Significance was accepted when P<0.05. Non-linear regression was conducted with GraphPad Software).
# [3] = Rattus norvegicus, High Glucose (25 mM)
# [4] = Rattus norvegicus, Intact Endothelium (E+)
# [5] = Rattus norvegicus, L-NAME (100 μM)
# [6] = Rattus norvegicus, Without Endothelium
smiles,measurement,setting,value
"CCCOc1ccc(S(=O)(=O)N2CCC(CCO)CC2)cc1-c1nn2c(CCC)c(/C=N/O)c(C)c2c(=O)[nH]1 [Compound 1r, (E)-2-(5-((4-(2-hydroxyethyl)piperidin-1-yl)sulfonyl)-2-propoxyphenyl)-5-methyl-4-oxo-7-propyl-3,4-dihydropyrrolo[2,1-f][1,2,4]triazine-6-carbaldehyde oxime]","cGMP formation in hPASMC, activity in words",[1],significantly higher activity as compared to the reference inhibitor sildenafil
same,EC50,[2]; High Glucose (25 mM),2.79 nM
same,Emax,[2]; High Glucose (25 mM),51%
same,IC40,[2]; High Glucose (25 mM),89.295 nM
same,EC50,[2]; Intact Endothelium (E+),0.0074 nM
same,Emax,[2]; Intact Endothelium (E+),91.9%
same,IC40,[2]; Intact Endothelium (E+),0.0038 nM
same,EC50,[2]; L-NAME (100 μM),0.935 nM
same,Emax,[2]; L-NAME (100 μM),60.4%
same,IC40,[2]; L-NAME (100 μM),2.982 nM
same,EC50,[2]; Without Endothelium,5.94 nM
same,Emax,[2]; Without Endothelium,39.8%
same,IC40,[2]; Without Endothelium,>1000 nM
same,"relaxation of rat aortic rings, result in words",[2]; intact endothelium (FIG. 2A),more potent and effective than Sildenafil
"CCCOc1ccc(S(=O)(=O)N2CCC(CCO[N+](=O)[O-])CC2)cc1-c1nn2c(CCC)c(/C=N/O)c(C)c2c(=O)[nH]1 [Compound 1v, (E)-2-(1-((3-(6-((hydroxyimino)methyl)-5-methyl-4-oxo-7-propyl-3,4-dihydropyrrolo[2,1-f][1,2,4]triazin-2-yl)-4-propoxyphenyl)sulfonyl)piperidin-4-yl)ethyl nitrate]","cGMP formation in hPASMC, activity in words",[1],significantly higher activity as compared to the reference inhibitor sildenafil
same,IC40,[2]; High Glucose (25 mM),0.66 nM
same,IC40,[2]; Intact Endothelium (E+),0.0082 nM
same,IC40,[2]; L-NAME (100 μM),1.412 nM
same,EC50,[2]; [3],0.181 nM
same,Emax,[2]; [3],64.2%
same,EC50,[2]; [4],0.0111 nM
same,Emax,[2]; [4],85.1%
same,EC50,[2]; [5],0.267 nM
same,Emax,[2]; [5],62%
same,EC50,[2]; [6],0.218 nM
same,Emax,[2]; [6],48.7%
same,lower concentration for 40% relaxation related to sildenafil,[2]; Without Endothelium,> 130 fold
same,IC40,[2]; Without Endothelium,7.527 nM
same,more potent relaxation as compared to sildenafil (based on EC50),[2]; absence of endothelium,about 95 fold
same,more potent relaxation as compared to sildenafil (based on EC50),[2]; intact endothelium,about 17 fold
same,"relaxation of rat aortic rings, result in words",[2]; intact endothelium (FIG. 2A),more potent and effective than Sildenafil
same,more potent relaxation as compared to sildenafil (based on EC50),"[2]; intact endothelium, pre-exposed to high (25 mM) glucose for 60 min",about 110 fold
same,"relaxation of rat aortic rings, result in words",[2]; pre-exposed to high glucose (25 mM) (FIG. 2B),clearly more potent and efficacious than 1r
same,more potent relaxation as compared to sildenafil (based on EC50),[2]; presence of L-NAME,about 22 fold
same,lower concentration for 40% relaxation related to sildenafil,[2]; with L-NAME,~68 fold
same,lower concentration for 40% relaxation related to sildenafil,[2]; with high glucose,~1250 fold
same,lower concentration for 40% relaxation related to sildenafil,[2]; with intact endothelium,about 24 fold
